Data as given in patent US7029865B2, “DNA molecules encoding the melanocortin 4 receptor protein from rhesus monkey” (Merck & Co., Inc., priority 1998, dated 2006).

System: rhMC-4R
Assay: Competitive binding assay, [125I]-NDP alpha MSH, membranes from rhesus MC-4R transfected cells
Conditions: read-out: IC50 rhMC-4R
Protocol: Reactions were incubated for 1 hour without shaking and then filtered through 96-well filter plates (Packard corp.). Filters were washed three times with TNE buffer (50 mM Tris pH 7.4, 5 mM EDTA, 150 mM NaCl), dried and counted using Microscint-20 in a Topcount scintillation counter (Packard).
Membranes prepared from rhesus MC-4R transfected cells were evaluated alongside membranes prepared from human MC-4R, MC-4R, and MC-5R expressing cells.

rhMC-4R, sequence (as listed by the source): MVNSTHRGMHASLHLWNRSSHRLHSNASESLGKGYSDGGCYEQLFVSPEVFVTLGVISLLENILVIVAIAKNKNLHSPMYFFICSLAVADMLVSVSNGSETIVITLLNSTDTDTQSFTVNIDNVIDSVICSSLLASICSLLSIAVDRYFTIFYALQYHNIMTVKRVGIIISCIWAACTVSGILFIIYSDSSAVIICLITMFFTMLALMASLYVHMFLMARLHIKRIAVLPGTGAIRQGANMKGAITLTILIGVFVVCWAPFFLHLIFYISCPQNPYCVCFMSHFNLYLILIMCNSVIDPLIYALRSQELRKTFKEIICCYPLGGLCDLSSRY

With NDP-alpha-MSH the IC50 was 1.3 nM.
